What all share (conditions): Table 35
The target in assay [1] is RIP1 (Homo sapiens (Human), UniProt Q13546). The assay can be described thus: KINOMEscan binding assay, RIP1.
The target of assay [2] is RIP3 (Homo sapiens (Human), UniProt Q9Y572). Nature of the assay: KINOMEscan binding assay, RIP3. As for the experimental part:
(§1) Kinase assays. For most assays, kinase-tagged T7 phage strains were grown in parallel in 24-well blocks in an E. coli host derived from the BL21 strain. E. coli were grown to log-phase and infected with T7 phage from a frozen stock (multiplicity of infection=0.4) and incubated with shaking at 32° C. until lysis (90-150 minutes).
(§2) The Hill Slope was set to −1.

Assay [3] deals with MLKL (full length) (Homo sapiens (Human), UniProt Q8NB16). The assay can be described thus: KINOMEscan binding assay, MLKL (full length). As to the method: as §1, §2
MLKL (full length), sequence (Q8NB16 whole entry): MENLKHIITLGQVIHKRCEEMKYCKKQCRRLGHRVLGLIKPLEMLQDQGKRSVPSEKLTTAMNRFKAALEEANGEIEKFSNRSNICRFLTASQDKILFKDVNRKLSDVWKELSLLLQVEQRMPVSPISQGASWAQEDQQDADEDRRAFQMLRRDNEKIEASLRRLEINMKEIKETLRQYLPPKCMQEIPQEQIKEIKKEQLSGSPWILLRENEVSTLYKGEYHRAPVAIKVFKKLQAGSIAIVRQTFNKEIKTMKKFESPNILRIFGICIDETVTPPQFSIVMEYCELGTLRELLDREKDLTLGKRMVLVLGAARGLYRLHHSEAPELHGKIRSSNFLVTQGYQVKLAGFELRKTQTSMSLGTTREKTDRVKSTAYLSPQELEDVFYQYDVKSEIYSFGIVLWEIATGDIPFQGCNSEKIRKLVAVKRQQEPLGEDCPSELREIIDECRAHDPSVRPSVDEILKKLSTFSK

A value given as a limit tells only on which side of the number the result lay.

RIP3, sequence (Q9Y572 whole entry): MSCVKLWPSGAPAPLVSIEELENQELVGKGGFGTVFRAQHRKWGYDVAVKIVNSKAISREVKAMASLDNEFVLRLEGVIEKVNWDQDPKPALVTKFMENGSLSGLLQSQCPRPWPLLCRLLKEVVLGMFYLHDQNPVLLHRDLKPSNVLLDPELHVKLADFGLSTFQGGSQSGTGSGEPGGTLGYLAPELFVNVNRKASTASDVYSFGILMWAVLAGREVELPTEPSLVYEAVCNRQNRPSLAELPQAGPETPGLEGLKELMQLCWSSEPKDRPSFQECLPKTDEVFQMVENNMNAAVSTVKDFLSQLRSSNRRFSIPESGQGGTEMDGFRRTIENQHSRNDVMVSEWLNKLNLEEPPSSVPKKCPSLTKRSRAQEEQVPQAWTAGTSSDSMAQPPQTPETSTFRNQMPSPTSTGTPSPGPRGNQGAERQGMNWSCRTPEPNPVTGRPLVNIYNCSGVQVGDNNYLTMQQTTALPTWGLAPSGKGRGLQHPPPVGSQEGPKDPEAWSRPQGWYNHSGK
RIP1, sequence (Q13546 whole entry): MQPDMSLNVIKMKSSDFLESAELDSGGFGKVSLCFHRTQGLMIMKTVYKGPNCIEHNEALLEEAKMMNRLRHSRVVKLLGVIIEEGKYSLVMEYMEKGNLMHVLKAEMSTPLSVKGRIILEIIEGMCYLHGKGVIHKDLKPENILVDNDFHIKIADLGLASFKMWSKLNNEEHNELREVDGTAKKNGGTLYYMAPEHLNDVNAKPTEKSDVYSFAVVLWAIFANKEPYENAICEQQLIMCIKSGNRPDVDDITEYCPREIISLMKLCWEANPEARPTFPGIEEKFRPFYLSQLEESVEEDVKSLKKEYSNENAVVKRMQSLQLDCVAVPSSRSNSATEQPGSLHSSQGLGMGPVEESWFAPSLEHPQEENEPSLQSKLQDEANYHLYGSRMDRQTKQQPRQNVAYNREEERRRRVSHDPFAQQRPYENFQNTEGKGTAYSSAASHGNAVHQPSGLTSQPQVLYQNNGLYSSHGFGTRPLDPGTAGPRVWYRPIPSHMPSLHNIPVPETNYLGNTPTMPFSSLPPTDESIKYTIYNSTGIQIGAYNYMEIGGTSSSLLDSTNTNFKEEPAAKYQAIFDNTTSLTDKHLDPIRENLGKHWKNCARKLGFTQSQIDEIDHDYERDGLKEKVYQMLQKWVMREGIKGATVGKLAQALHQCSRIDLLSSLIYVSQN

Usually Kd stands for a measure of binding affinity in units of concentration. As for `CCS(=O)(=O)Nc1ccc(-c2n[nH]c(Nc3cnccn3)c2C(N)=O)cc1OCc1ccccc1F` [Compound 2, 3-(4-(ethylsulfonamido)-3-((2-fluorobenzyl)oxy)phenyl)-5-(pyrazin-2-ylamino)-1H-pyrazole-4-carboxamide], the dissociation constant Kd in assay [1] and in assay [2] was over 30 µM in each case. For `CCS(=O)(=O)Nc1ccc(-c2n[nH]c(Nc3cccc(C(F)(F)F)n3)c2C(N)=O)cc1OCc1cccc(Cl)c1` [Compound 3, 3-(3-((3-chloro-benzyl)oxy)-4-(ethylsulfon-amido)phenyl)-5-((6-(trifluoro-methyl)pyridin-2-yl)amino)-1H-pyrazole-4-carboxamide], the Kd in assay [1] and in assay [2] was over 30 µM in each case. As to `CCS(=O)(=O)Nc1ccc(-c2n[nH]c(Nc3cccc(C(F)(F)F)n3)c2C(N)=O)cc1OCc1ccc(Cl)cc1` [Compound 4, 3-(3-((4-chloro-benzyl)oxy)-4-(ethylsulfon-amido)phenyl)-5-((6-(trifluoro-methyl)pyridin-2-yl)amino)-1H-pyrazole-4-carboxamide], the Kd in assay [1] and in assay [2] was over 30 µM in each case. For the compound `CCS(=O)(=O)Nc1ccc(-c2n[nH]c(Nc3cccnc3)c2C(N)=O)cc1OCc1ccc(F)cc1` [Compound 6, 3-(4-(ethylsulfonamido)-3-((4-fluorobenzyl)oxy)phenyl) 5-(pyridin-3-ylamino)-1H-pyrazole-4-carboxamide], the Kd in assay [1] and in assay [2] was over 30 µM in each case. Take `CCS(=O)(=O)Nc1ccc(-c2n[nH]c(Nc3cnccn3)c2C(N)=O)cc1OCC1CCN(C(C)=O)CC1` [Compound 7, 3-(3-((1-acetylpiperidin-4-yl)methoxy)-4-(ethylsulfonamido)phenyl)-5-(pyrazin-2-ylamino)-1H-pyrazole-4-carboxamide]: the Kd in assay [1] and in assay [2] was over 30 µM throughout. Consider `CCS(=O)(=O)Nc1ccc(-c2n[nH]c(Nc3cccc(C(F)(F)F)n3)c2C(N)=O)cc1OCc1ccc(F)cc1` [Compound 8, 3-(4-(ethylsulfon-amido)-3-((4-fluoro-benzyl)oxy)phenyl)-5-((6-(trifluoro-methyl)pyridin-2-yl)amino)-1H-pyrazole-4-carboxamide], for which the Kd in assay [1] and in assay [2] was over 30 µM in each case. Take `CCS(=O)(=O)Nc1ccc(-c2n[nH]c(Nc3cccc(C(F)(F)F)n3)c2C(N)=O)cc1OCC1CCCC1` [Compound 10, 3-(3-(cyclopentyl-methoxy)-4-(ethylsulfon-amido)phenyl)-5-((6-(trifluoro-methyl)pyridin-2-yl)amino)-1H-pyrazole-4-carboxamide]: the equilibrium dissociation constant (Kd) in assay [1] and in assay [2] was over 30 µM throughout.

For the compound `CCS(=O)(=O)Nc1ccc(-c2n[nH]c(Nc3cccc(C(F)(F)F)n3)c2C(N)=O)cc1OCC(C)C` [Compound 12, 3-(4-(ethylsulfonamido)-3-isobutoxyphenyl)-5-((6-(trifluoromethyl)pyridin-2-yl)amino)-1H-pyrazole-4-carboxamide], the Kd in assay [1] and in assay [2] was over 30 µM each time. Take `CCS(=O)(=O)Nc1ccc(-c2n[nH]c(Nc3cccc(C(F)(F)F)n3)c2C(N)=O)cc1OCc1ccncc1` [Compound 16, 3-(4-(ethylsulfon-amido)-3-(pyridin-4-ylmethoxy)phenyl)-5-((6-(trifluoro-methyl)pyridin-2-yl)amino)-1H-pyrazole-4-carboxamide]: the Kd in assay [1] and in assay [2] was over 30 µM each time.

In the case of `CCS(=O)(=O)Nc1ccc(-c2n[nH]c(Nc3ccccn3)c2C(N)=O)cc1OCC1CCCCC1` [Compound 35, 3-(3-(cyclohexyl-methoxy)-4-(ethylsulfon-amido)phenyl)-5-(pyridin-2-ylamino)-1H-pyrazole-4-carboxamide], the Kd in assay [1] and in assay [2] was over 30 µM in each case. In assay [2], `CCS(=O)(=O)Nc1ccc(-c2n[nH]c(Nc3ccccn3)c2C(N)=O)cc1OCC1CCCC1` [Compound 36, 3-(3-(cyclopentyl-methoxy)-4-(ethylsulfon-amido)phenyl)-5-(pyridin-2-ylamino)-1H-pyrazole-4-carboxamide] had a Kd of over 30 µM. With `CCS(=O)(=O)Nc1ccc(-c2n[nH]c(Nc3ccccn3)c2C(N)=O)cc1OCC(C)C` [Compound 37, 3-(4-(ethylsulfonamido)-3-isobutoxyphenyl)-5-(pyridin-2-ylamino)-1H-pyrazole-4-carboxamide], the equilibrium dissociation constant (Kd) in assay [1] and in assay [2] was over 30 µM throughout. In the case of `CCS(=O)(=O)Nc1ccc(-c2n[nH]c(Nc3cncc(C(F)(F)F)n3)c2C(N)=O)cc1` [Compound 44, 3-(4-(ethylsulfonamido)phenyl)-5-((6-(trifluoromethyl)pyrazin-2-yl)amino)-1H-pyrazole-4-carboxamide], the dissociation constant (Kd) in assay [1] and in assay [2] was over 30 µM in each case. Turning to `CCS(=O)(=O)Nc1ccc(-c2n[nH]c(Nc3cnccn3)c2C(N)=O)cc1OCC(C)C` [Compound 45, 3-(4-(ethylsulfonamido)-3-isobutoxyphenyl)-5-(pyrazin-2-ylamino)-1H-pyrazole-4-carboxamide], the Kd in assay [2] is over 30 µM. Compound `Cc1ccc(CS(=O)(=O)Nc2ccc(-c3n[nH]c(Nc4cccc(C(F)(F)F)n4)c3C(N)=O)cc2)cc1` [Compound 57, 3-(4-((p-tolylmethyl)sulfonamido)phenyl)-5-((6-(trifluoromethyl)pyridin-2-yl)amino)-1H-pyrazole-4-carboxamide] showed a Kd in assay [2] of over 30 µM. The compound `CCS(=O)(=O)Nc1ccc(-c2n[nH]c(NC)c2C(N)=O)cc1` [Compound 119, 3-(4-(ethylsulfonamido)phenyl)-5-(methylamino)-1H-pyrazole-4-carboxamide] came in with a dissociation constant (Kd) in assay [2] of over 30 µM.

The compound `CCS(=O)(=O)Nc1ccc(-c2n[nH]c(Nc3cnccn3)c2C(N)=O)cc1OCc1c(C)cc(F)cc1C` [Compound 142, 3-(4-(ethylsulfonamido)-3-((4-fluoro-2,6-dimethylbenzyl)oxy)phenyl)-5-(pyrazin-2-ylamino)-1H-pyrazole-4-carboxamide] yielded a Kd in assay [2] of over 30 µM. Consider `CCS(=O)(=O)Nc1ccc(-c2n[nH]c(Nc3cnc(C)cn3)c2C(N)=O)cc1OCc1ccc(F)c(Cl)c1` [Compound 150, 3-(3-((3-chloro-4-fluorobenzyl)oxy)-4-(ethylsulfonamido)phenyl)-5-((5-methylpyrazin-2-yl)amino)-1H-pyrazole-4-carboxamide], for which the dissociation constant (Kd) in assay [1] is over 30 µM; in assay [3], under 0.01 µM. Turning to `CCS(=O)(=O)Nc1ccc(-c2n[nH]c(Nc3cnc(C(C)(C)C)cn3)c2C(N)=O)cc1` [Compound 181, 5-((5-(tert-butyl)pyrazin-2-yl)amino)-3-(4-(ethylsulfonamido)phenyl)-1H-pyrazole-4-carboxamide], the results for the Kd in assay [1] and in assay [3] were over 30 µM and under 0.01 µM, respectively. In the case of `NC(=O)c1c(-c2ccc(NS(=O)(=O)CCC(F)(F)F)cc2)n[nH]c1Nc1cccc(C(F)(F)F)n1` [Compound 189, 5-((6-(trifluoromethyl)pyridine-2-yl)amino)-3-(4-((3,3,3-trifluoropropyl)sulfonamido)phenyl)-1H-pyrazole-4-carboxamide], the Kd in assay [1] is over 30 µM; in assay [3], under 0.01 µM.

Take `CCS(=O)(=O)Nc1ccc(-c2n[nH]c(Nc3ccc(OC)nc3)c2C(N)=O)cc1OCc1ccc(F)cc1` [Compound 197, 3-(4-(ethylsulfonamido)-3-((4-fluorobenzyl)oxy)phenyl)-5-((6-methoxypyridin-3-yl)amino)-1H-pyrazole-4-carboxamide]: the dissociation constant (Kd) was over 30 µM in assay [1] and under 0.01 µM in assay [3].

The values are drawn from patent US20250074891A1 (Anaxis Pharma Pty Ltd., priority 2021, published 2025).
